This is an account of results in paper PMC7827628, “Effect of Sulfonamides and Their Structurally Related Derivatives on the Activity of ι-Carbonic Anhydrase from Burkholderia territorii” (International Journal of Molecular Sciences, 2021).

The assay has as its target BteCAι. Kind of assay: stopped-flow CO2 hydration assay. The following applies: CO2 substrate; 20 °C, pH 7.5, 10 mM HEPES (methods give 20 mM TRIS pH 8.3, 20 mM NaClO4); 15 min preincubation. Format: biochemical, Burkholderia territorii.
Consider `CCN[C@H]1CN(CCCOC)S(=O)(=O)c2sc(S(N)(=O)=O)cc21` [BRZ, brinzolamide], for which the Ki (commonly a dissociation constant, usually derived from enzyme kinetics or from competition with a known ligand) amounted to 3700 nM. As for `NS(=O)(=O)c1nnc(NS(=O)(=O)c2ccccc2)s1` [BZA, benzolamide], the figure is 724 nM; as for `Cc1ccc(-c2cc(C(F)(F)F)nn2-c2ccc(S(N)(=O)=O)cc2)cc1` [CLX, celecoxib], 960 nM. As for `NS(=O)(=O)c1cc(Cl)c(Cl)c(S(N)(=O)=O)c1` [DCP, dichlorphenamide], the figure is 825 nM. As for `NS(=O)(=O)NCCNc1nonc1/C(=N/O)Nc1ccc(F)c(Br)c1` [EPA, epacadostat], the figure is 955 nM. Consider `NC(N)=Nc1nc(CSCCC(N)=NS(N)(=O)=O)cs1` [FAM, Famotidine], for which the inhibitory constant (Ki) was determined as 943 nM. Regarding `NS(=O)(=O)c1cc2c(cc1Cl)NCNS2(=O)=O` [HCT, hydrochlorothiazide], the inhibition constant (Ki) stood at 780 nM. As for `NS(=O)(=O)c1ccc(S(=O)(=O)Nc2cccc3c(Cl)c[nH]c23)cc1` [IND, Indisulam], the Ki worked out at 638 nM.

For `O=C1NS(=O)(=O)c2ccccc21` [SAC, Saccharin], the Ki was 7080 nM.

For the compound `CCN1CCCC1CNC(=O)c1cc(S(N)(=O)=O)ccc1OC` (centres unmarked) [SLP, Sulpiride], the inhibition constant (Ki) was 958 nM. Take `NS(=O)(=O)c1ccc(N2CCCCS2(=O)=O)cc1` [SLT, sulthiame]: the affinity, expressed as Ki, was 954 nM. Turning to `CC1(C)O[C@@H]2[C@@H](CO[C@@]3(COS(N)(=O)=O)OC(C)(C)O[C@@H]23)O1` [TPM, topiramate], the affinity, expressed as Ki, was 787 nM.

As to `Cc1onc(-c2ccccc2)c1-c1ccc(S(N)(=O)=O)cc1` [VLX, valdecoxib], the Ki was found to be 934 nM. The compound `NS(=O)(=O)Cc1noc2ccccc12` [ZNS, Zonisamide] returned a Ki of 806 nM. As for `NCc1ccc(S(N)(=O)=O)cc1` [compound 5, 5], the figure is 97 nM.

Regarding `Nc1ccc(S(N)(=O)=O)cc1Br` [compound 9, 9], affinity was put at a Ki of 96 nM. Consider `Nc1nccc(Nc2ccc(S(N)(=O)=O)cc2)n1` [compound 19, 19], for which affinity was put at a Ki of 93 nM.
